Structures are written as SMILES. Read-outs that look alike come from different tables or passages of the source. Where only a bound is given, the exact number is not on record here.

For orientation: CC50 means the concentration at which the toxic effect on the cells reaches its halfway point.

The subject of one data set is S. aureus. In words: S. aureus bacterial proliferation assay. Format: cell-based. As to conditions: cation adjusted BHI media, OD600 at 6-8 h; for EC50: Staphylococcus aureus, read-out: S. aureus Proliferation EC50. As for the experimental part: Evaluation of compounds for inhibition of bacterial cell proliferation.
Growth Media: S. aureus bacteria were grown in Brain Heart Infusion (BHI) broth/agar (Becton, Dickinson and Company). All liquid cultures were grown in BHI media supplemented with 25 mg/L Ca^2+ and 12.5 mg/L Mg^2+ to mimic free physiological concentrations of these cations. A 10 mg/mL Ca^2+ stock solution was prepared by dissolving 3.68 g of CaCl2·2H^2O in 100 mL of deionized water, and a 10 mg/mL Mg^2+ stock solution was prepared by dissolving 8.36 g of […] in 100 mL deionized water. Both stock solutions were filter-sterilized using 0.2 μm pore size cellulose-acetate filters. 2.5 mL of the sterile 10 mg/mL Ca^2+ stock and 1.25 mL of the sterile 10 mg/mL Mg^2+ stock solutions were added per 1 L of autoclaved BHI medium to obtain 25 mg/L Ca^2+ and 12.5 mg/L Mg^2+ ions, respectively.
General Assay Protocol: Stock bacterial cultures were streaked onto BHI agar plates and grown overnight at 37° C. Fresh aliquots of broth were inoculated with single bacterial colonies and the cultures were grown overnight at 37° C. with shaking (240 rpm) in cation adjusted BHI media. The following morning, the overnight cultures were sub-cultured (1:5 dilution) into fresh aliquots of cation adjusted BHI media and grown at 37° C. for 1-2 hours with shaking. After 2 h, cultures were diluted into fresh media to achieve final OD600 readings of 0.017. Aliquots of these diluted cultures (30 μL) were added to clear, flat-bottom, 384-well polystyrene plates that were stamped with 0.5 μL of test compounds in 20 μL media. Compounds were evaluated in dose-response format where the inhibitor concentration range during the proliferation assay was 100 μM to 46 nM (3-fold dilution series). Plates were sealed with “Breathe Easy” oxygen permeable membranes (Diversified Biotech) and left to incubate at 37° C. without shaking (stagnant assay). OD600 nm readings were taken generally at 6-8 h, when bacteria had reached log-phase growth. A second set of baseline control plates were prepared analogously, but without any bacteria added, to correct for possible compound absorbance and/or precipitation. Plates were then read at 600 nm using a Molecular Devices SpectraMax Plus384 microplate reader. EC50 values for the test compounds were obtained by plotting the OD600 results in GraphPad Prism and analyzing by non-linear regression using the log(inhibitor) vs. response (variable slope) equation. For results, see Tables 1, 2, and 3.

Data set [1] is described as follows: HEK 293 kidney cell viability / cytotoxicity assay (Alamar Blue). The data set is classed as cell-based. The settings on record: human, 48 h incubation, Alamar Blue, read-out: HEK 293 Kidney Cell Viability CC50. As for the experimental part:
Evaluating compound effects on kidney cell viability.
HEK 293 cells were maintained in MEM medium (Corning Cellgro, 10-009 CV) supplemented with 10% FBS (Sigma, F2242). […] Cells at 80% confluence were harvested and diluted in growth medium, then 45 μL of the HEK 293 cells (1,500 cells/well) were dispensed per well, and plates were sealed with “Breathe Easy” oxygen permeable membranes (Diversified Biotech) and incubated at 37° C., 5% CO2, for 24 h. […] Plates were sealed with “Breathe Easy” oxygen permeable membranes and incubated for an additional 48 h at 37° C. and 5% CO2. The Alamar Blue reporter reagents were then added to a final concentration of 10%, the plates incubated at 37° C. and 5% CO2, and sample fluorescence (535 nm excitation, 590 nm emission) was read using a Molecular Devices FlexStation II 384-well plate reader (readings taken between 4-24 h of incubation so as to achieve signals in the 30-60% range for conversion of resazurin to resorufin). Cell viability was calculated as per vendor instructions (Thermo Fisher—Alamar Blue cell viability assay manual).
On the technique in general: Resazurin is reduced to fluorescent resorufin, in cell work by metabolically active cells.

For `Cc1cc(C(C#N)c2ccc(Cl)cc2)c(Cl)cc1NC(=O)c1ccccc1Br` (stereo not shown) [Compound 73, 2-bromo-N-(5-chloro-4-((4-chlorophenyl)(cyano)methyl)-2-methylphenyl)benzamide], in the data set on S. aureus (Table 2), the S. aureus Proliferation EC50 is greater than 100 µM. In addition, the CC50 at 48 h in data set [1] (Table 2) is greater than 100 µM.
With `COc1ccc(NC(=O)c2cc(Cl)ccc2OC)cc1` [Compound 112, 5-chloro-2-methoxy-N-(4-methoxyphenyl)benzamide], the EC50 in the data set with S. aureus (Table 3) was greater than 100 µM. In addition, the CC50 at 48 h in data set [1] (HEK 293 kidney cells, Table 3) is greater than 100 µM.
`COc1ccc(Cl)cc1C(=O)Nc1ccc(CC#N)cc1` [Compound 110, 5-chloro-N-(4-(cyanomethyl)phenyl)-2-methoxybenzamide]: in the data set on S. aureus (Table 3), the EC50 is greater than 100 µM. The CC50 at 48 h in data set [1] (HEK 293 kidney cells, Table 3) was greater than 100 µM.
For the compound `O=C(Nc1ccc(Sc2nc3ccccc3s2)c(Cl)c1)c1cc(Cl)ccc1O` [Compound 95, N-(4-(benzo[d]thiazol-2-ylthio)-3-chlorophenyl)-5-chloro-2-hydroxybenzamide], the EC50 in the data set with S. aureus (Table 3) amounted to 0.14 µM. Further, the CC50 at 48 h in data set [1] (HEK 293 kidney cells, Table 3) was determined as 83 µM.
`Cc1cc(C(C#N)c2ccc(Cl)cc2)c(Cl)cc1NC(=O)c1ccccc1` (stereo not shown) [Compound 82, N-(5-chloro-4-((4-chlorophenyl)(cyano)methyl)-2-methylphenyl)benzamide]: in the data set on S. aureus (Table 2), the S. aureus Proliferation EC50 is greater than 100 µM. In addition, the CC50 at 48 h in data set [1] (Table 2) was 47 µM.
Regarding `COC(=O)c1ccc(NC(=O)c2cc(Cl)ccc2O)cc1` [Compound 107, methyl 4-(5-chloro-2-hydroxybenzamido)benzoate], the EC50 with S. aureus (Table 3) was determined as 0.94 µM. In data set [1] (HEK 293 kidney cells, Table 3), the 50% cytotoxic concentration (CC50) at 48 h came out at 11 µM.
In the case of `Cc1cc(C(C#N)c2ccc(Cl)cc2)c(Cl)cc1NC(=O)c1cc(Br)ccc1O` (stereo not shown) [Compound 50, 5-bromo-N-(5-chloro-4-((4-chlorophenyl)(cyano)methyl)-2-methylphenyl)-2-hydroxybenzamide], the EC50 in the data set on S. aureus (Table 2) is 0.11 µM. Besides, the CC50 at 48 h in data set [1] (Table 2) was found to be 3.4 µM.
`COc1ccc(C)cc1C(=O)Nc1cc(Cl)c(C(C#N)c2ccc(Cl)cc2)cc1C` (stereo not shown) [Compound 59, N-(5-chloro-4-((4-chlorophenyl)(cyano)methyl)-2-methylphenyl)-2-methoxy-5-methylbenzamide] returned a S. aureus Proliferation EC50 in the data set on S. aureus (Table 2) greater than 100 µM. The CC50 at 48 h in data set [1] (Table 2) worked out at 32 µM.
The corresponding values for `COc1c(Br)cccc1C(=O)Nc1cc(Cl)c(C(C#N)c2ccc(Cl)cc2)cc1C` (stereo not shown) [Compound 47, 3-bromo-N-(5-chloro-4-((4-chlorophenyl)(cyano)methyl)-2-methylphenyl)-2-methoxybenzamide] are greater than 100 µM and greater than 100 µM.
`Cc1cc(C(C#N)c2ccc(Cl)cc2)c(Cl)cc1NC(=O)c1cccc(Br)c1` (stereo not shown) [Compound 74, 3-bromo-N-(5-chloro-4-((4-chlorophenyl)(cyano)methyl)-2-methylphenyl)benzamide] registered a S. aureus Proliferation EC50 with S. aureus (Table 2) greater than 100 µM. For the same compound, the CC50 at 48 h in data set [1] (HEK 293 kidney cells, Table 2) is greater than 100 µM.
For the compound `COc1ccc(Cl)cc1C(=O)Nc1ccc(Cc2ccccc2)cc1` [Compound 98, N-(4-benzylphenyl)-5-chloro-2-methoxybenzamide], the EC50 with S. aureus (Table 3) was greater than 100 µM. Further, in data set [1] (HEK 293 kidney cells, Table 3), the CC50 at 48 h was greater than 100 µM.
On to `COc1ccc(Cl)cc1C(=O)Nc1ccc(O)cc1` [Compound 114, 5-chloro-N-(4-hydroxyphenyl)-2-methoxybenzamide], for which, in the data set on S. aureus (Table 3), the EC50 is greater than 100 µM. In addition, in data set [1] (HEK 293 kidney cells, Table 3), the CC50 at 48 h is greater than 100 µM.
Turning to `O=C(Nc1ncc([N+](=O)[O-])s1)c1ccccc1O` [Tizoxanide, reference compound], in the data set on S. aureus (Table 1), the EC50 was 9.7 µM. For the same compound, the CC50 at 48 h in data set [1] (HEK 293 kidney cells, Table 1) was 31 µM.
Take `O=C(Nc1ccc(Oc2ccc(Cl)cc2)cc1)c1cc(Cl)ccc1O` [Compound 89, 5-chloro-N-(4-(4-chlorophenoxy)phenyl)-2-hydroxybenzamide]: in the data set with S. aureus (Table 3), the EC50 worked out at 0.36 µM. In addition, in data set [1] (Table 3), the CC50 at 48 h turned out to be 15 µM.
Take `CC(=O)Oc1ccccc1C(=O)Nc1ncc([N+](=O)[O-])s1` [Nitazoxanide, reference compound]: the EC50 in the data set on S. aureus (Table 1) came out at 12 µM. Besides, the CC50 at 48 h in data set [1] (HEK 293 kidney cells, Table 1) was 30 µM.
As to `COc1ccc(Cl)cc1C(=O)Nc1ccc(NC(C)=O)cc1` [Compound 104, N-(4-acetamidophenyl)-5-chloro-2-methoxybenzamide], in the data set on S. aureus (Table 3), the EC50 is greater than 100 µM. In addition, in data set [1] (HEK 293 kidney cells, Table 3), the CC50 at 48 h is greater than 100 µM.
For `O=C(Nc1ccc(Sc2nc3ccccc3s2)cc1)c1cc(Cl)ccc1O` [Compound 97, N-(4-(benzo[d]thiazol-2-ylthio)phenyl)-5-chloro-2-hydroxybenzamide], the EC50 with S. aureus (Table 3) is 0.1 µM. Besides, in data set [1] (HEK 293 kidney cells, Table 3), the 50% cytotoxic concentration (CC50) at 48 h stood at 28 µM.
Turning to `Cc1cc(C(C#N)c2ccc(Cl)cc2)c(Cl)cc1NC(=O)c1ccc([N+](=O)[O-])cc1` (stereo not shown) [Compound 69, N-(5-chloro-4-((4-chlorophenyl)(cyano)methyl)-2-methylphenyl)-4-nitrobenzamide], the S. aureus Proliferation EC50 with S. aureus (Table 2) was greater than 100 µM. The CC50 at 48 h in data set [1] (HEK 293 kidney cells, Table 2) is greater than 100 µM.
In the case of `N#CCc1ccc(NC(=O)c2cc(Cl)ccc2O)cc1` [Compound 111, 5-chloro-N-(4-(cyanomethyl)phenyl)-2-hydroxybenzamide], the EC50 with S. aureus (Table 3) is greater than 100 µM. The half-maximal cytotoxic concentration (CC50) at 48 h in data set [1] (HEK 293 kidney cells, Table 3) came to 19 µM.
`Cc1cc(C(C#N)c2ccc(Cl)cc2)c(Cl)cc1NC(=O)c1cccc(N)c1` (stereo not shown) [Compound 71, 3-amino-N-(5-chloro-4-((4-chlorophenyl)(cyano)methyl)-2-methylphenyl)benzamide] had a S. aureus Proliferation EC50 with S. aureus (Table 2) greater than 100 µM. In addition, the CC50 at 48 h in data set [1] (HEK 293 kidney cells, Table 2) amounted to 35 µM.
The compound `CC(=O)Nc1cc(Cl)c(C(C#N)c2ccc(Cl)cc2)cc1C` (stereo not shown) [Compound 83, N-(5-chloro-4-((4-chlorophenyl)(cyano)methyl)-2-methylphenyl)acetamide] showed a S. aureus Proliferation EC50 in the data set with S. aureus (Table 2) greater than 100 µM. Moreover, in data set [1] (HEK 293 kidney cells, Table 2), the CC50 at 48 h is 83 µM.
With `COc1cc(Cl)ccc1C(=O)Nc1cc(Cl)c(C(C#N)c2ccc(Cl)cc2)cc1C` (stereo not shown) [Compound 55, 4-chloro-N-(5-chloro-4-((4-chlorophenyl)(cyano)methyl)-2-methylphenyl)-2-methoxybenzamide], in the data set with S. aureus (Table 2), the S. aureus Proliferation EC50 is greater than 100 µM. For the same compound, the CC50 at 48 h in data set [1] (Table 2) was greater than 100 µM.
As to `O=C(Nc1cc(Cl)cc(Cl)c1O)c1c(O)c(Cl)cc(Cl)c1Cl` [Oxyclosanide, reference compound], in the data set with S. aureus (Table 1), the EC50 was found to be 0.52 µM. For the same compound, the CC50 at 48 h in data set [1] (HEK 293 kidney cells, Table 1) was determined as 30 µM.
Regarding `Cc1cc(C(C#N)c2ccc(Cl)cc2)c(Cl)cc1NC(=O)c1cc(Br)cc(Br)c1O` (stereo not shown) [Compound 46, 3,5-dibromo-N-(5-chloro-4-((4-chlorophenyl)(cyano)methyl)-2-methylphenyl)-2-hydroxybenzamide], the EC50 in the data set on S. aureus (Table 2) was 0.22 µM. For the same compound, the CC50 at 48 h in data set [1] (Table 2) was determined as 58 µM.
For `COc1ccc(Cl)cc1C(=O)Nc1ccc(Sc2nc3ccccc3s2)c(Cl)c1` [Compound 94, N-(4-(benzo[d]thiazol-2-ylthio)-3-chlorophenyl)-5-chloro-2-methoxybenzamide], the EC50 in the data set with S. aureus (Table 3) is greater than 100 µM. In addition, the CC50 at 48 h in data set [1] (HEK 293 kidney cells, Table 3) was greater than 100 µM.
Take `Cc1cc(C(C#N)c2ccc(Cl)cc2)c(Cl)cc1NC(=O)c1ccccc1[N+](=O)[O-]` (stereo not shown) [Compound 67, N-(5-chloro-4-((4-chlorophenyl)(cyano)methyl)-2-methylphenyl)-2-nitrobenzamide]: the S. aureus Proliferation EC50 in the data set with S. aureus (Table 2) was greater than 100 µM. In data set [1] (HEK 293 kidney cells, Table 2), the CC50 at 48 h was greater than 100 µM.

(Values after patent US20230406831A1, “COMPOUNDS AND METHODS OF INHIBITING BACTERIAL CHAPERONIN SYSTEMS” (THE TRUSTEES OF INDIANA UNIVERSITY, priority 2020, published 2023).)
